Source: EP1172104A1, “SEAM SOFT CAPSULE PREPARATIONS CONTAINING DIHYDROBENZOFURAN DERIVATIVE” (CHUGAI SEIYAKU KABUSHIKI KAISHA, priority 1999, dated 2000)

Assays:
Format in all cases: physicochemical
[1] = Stability of seamed soft capsule formulations of BO-653 (2): Formulation 3, shell thickness and glycerin content, HPLC; settings: Formulation 3 (50% w/w in soybean oil)
Description: Formulation 3 obtained in Example 1 was stored at 50°C in a 100% oxygen atmosphere.

[2] = Stability of seamed soft capsule formulation of BO-653 (1): Formulations 1 and 2, accelerated tests, HPLC; settings: 100% oxygen atmosphere
Description: Formulations 1 and 2 obtained in Example 1 were tested for their stability under the conditions below: Condition 1: • Formulation 1 was left at 40°C in a 100% oxygen atmosphere. Condition 2: • Formulation 1 was left at 50°C in a 100% oxygen atmosphere. Condition 3: • Formulation 2 was left at 50°C in a 100% oxygen atmosphere.
As a control, BO-653 was dissolved in soybean oil to give a concentration of 10% by weight and the solution was left at 40°C in a 100% oxygen atmosphere in the form that the solution was not filled into a soft capsule.

[3] = Stability of seamed soft capsule formulations of BO-653 (3): Formulation 4, various storage conditions, HPLC
[4] = Stability of BO-653 in various fat and oils (influence of oxygen, accelerated test at 80°C, HPLC); settings: 17 hours
Description: The influence of oxygen on the stability of BO-653 in various fat and oils was tested. BO-653 was dissolved in soybean oil, olive oil, MCT, tricaprylin, and linoleic acid separately to give a concentration of 50% by weight. 70 mg of each of the solutions was placed into individual 5 cc glass bottles. Separately, 35 mg of BO-653 was directly placed into a 5 cc glass bottle. The samples were prepared in duplicate. One set of samples were subjected to an argon replacement of the headspace of the bottles and then tightly sealed, while the other set of samples were sealed without argon replacement. Accelerated test at 80°C was conducted using all of the samples.

Content (%) of BO-653 after left at 50°C in a 100% oxygen atmosphere for 1 month ([1]; Capsule No. 1: thickness 26 x 10^-3 inch (66 x 10^-2 mm), glycerin content 30.0): 99.4%
Content (%) of BO-653 after left at 50°C in a 100% oxygen atmosphere for 1 month ([1]; Capsule No. 2: thickness 30 x 10^-3 inch (76 x 10^-2 mm), glycerin content 30.0): 99.9%
Content (%) of BO-653 after left at 50°C in a 100% oxygen atmosphere for 1 month ([1]; Capsule No. 3: thickness 34 x 10^-3 inch (86 x 10^-2 mm), glycerin content 30.0): 99.7%
Content (%) of BO-653 after left at 50°C in a 100% oxygen atmosphere for 1 month ([1]; Capsule No. 4: thickness 26 x 10^-3 inch (66 x 10^-2 mm), glycerin content 44.2): 98.8%
Content (%) of BO-653 after left at 50°C in a 100% oxygen atmosphere for 1 month ([1]; Capsule No. 5: thickness 30 x 10^-3 inch (76 x 10^-2 mm), glycerin content 44.2): 100.0%
Content (%) of BO-653 after left at 50°C in a 100% oxygen atmosphere for 1 month ([1]; Capsule No. 6: thickness 34 x 10^-3 inch (86 x 10^-2 mm), glycerin content 44.2): 100.8%
Content (%) of BO-653 after left at 50°C in a 100% oxygen atmosphere for 1 month ([1]; Capsule No. 8: thickness 30 x 10^-3 inch (76 x 10^-2 mm), glycerin content 56.4): 97.0%
Content (%) of BO-653 after left at 50°C in a 100% oxygen atmosphere for 1 month ([1]; Capsule No. 9: thickness 34 x 10^-3 inch (86 x 10^-2 mm), glycerin content 56.4): 98.8%
Residual ratio (%) of BO-653 ([2]; Condition 1: Formulation 1 (10% w/w in soybean oil, seamed soft capsule), 40°C, 1 month): 100.7%
Residual ratio (%) of BO-653 ([2]; Condition 2: Formulation 1 (10% w/w in soybean oil, seamed soft capsule), 50°C, 2 weeks): 99.6%
Residual ratio (%) of BO-653 ([2]; Condition 3: Formulation 2 (10% w/w in MCT, seamed soft capsule), 50°C, 3 weeks): 92.8%
Residual ratio (%) of BO-653 ([2]; Control: 10% by weight solution in soybean oil not filled into a soft capsule, 40°C, 1 month): < 0.2%
Residual ratio (%) of BO-653 ([3]; Formulation 4, BO-653 content in filling solution 4% by weight, 40°C, RH75% - 1M): 99.0%
Residual ratio (%) of BO-653 ([3]; Formulation 4, BO-653 content in filling solution 4% by weight, 50°C, 100% oxygen atmosphere-1M): 100.0%
Residual ratio (%) of BO-653 ([3]; Formulation 4, BO-653 content in filling solution 4% by weight, irradiation with 1,200,000 lux.hrs white light): 100.0%
Residual ratio (%) of BO-653 ([3]; Formulation 4, BO-653 content in filling solution 4% by weight, irradiation with 1,200,000 lux.hrs white light followed by 400 W.hrs/m^2 UV rays): 98.0%
Residual ratio (%) of BO-653 ([3]; Formulation 4, BO-653 content in filling solution 40% by weight, 40°C, RH75% - 1M): 100.1%
Residual ratio (%) of BO-653 ([3]; Formulation 4, BO-653 content in filling solution 40% by weight, 50°C, 100% oxygen atmosphere-1M): 100.7%
Residual ratio (%) of BO-653 ([3]; Formulation 4, BO-653 content in filling solution 40% by weight, irradiation with 1,200,000 lux.hrs white light): 100.0%
Residual ratio (%) of BO-653 ([3]; Formulation 4, BO-653 content in filling solution 40% by weight, irradiation with 1,200,000 lux.hrs white light followed by 400 W.hrs/m^2 UV rays): 99.7%
Residual ratio (%) of BO-653 ([3]; Formulation 4, BO-653 content in filling solution 80% by weight, 40°C, RH75% - 1M): 99.8%
Residual ratio (%) of BO-653 ([3]; Formulation 4, BO-653 content in filling solution 80% by weight, 50°C, 100% oxygen atmosphere-1M): 101.0%
Residual ratio (%) of BO-653 ([3]; Formulation 4, BO-653 content in filling solution 80% by weight, irradiation with 1,200,000 lux.hrs white light): 99.5%
Residual ratio (%) of BO-653 ([3]; Formulation 4, BO-653 content in filling solution 80% by weight, irradiation with 1,200,000 lux.hrs white light followed by 400 W.hrs/m^2 UV rays): 99.8%
residual ratio of BO-653 ([4]; 50% by weight in soybean oil, without argon replacement (presence of oxygen)): Relatively high stability
residual ratio of BO-653 ([4]; BO-653 alone or 50% by weight in soybean oil, olive oil, MCT, tricaprylin or linoleic acid, with argon replacement (absence of oxygen)): little loss
Substance: 4,6-di-tert-butyl-2,2-di-n-pentyl-5-hydroxy-2,3-dihydrobenzofuran [BO-653]
